Test system: hAPP transgenic mice
Experiment: Extent of CAA in brain sections of hAPP transgenic mice after 8 weeks of treatment, Thioflavin S staining
Type: in vivo
Conditions: for # of animals with CAA: nine week old hAPP transgenic mice
Procedure: The ability of compounds of the invention to inhibit CAA was measured in the following example. Nine week old hAPP transgenic mice were treated for a period of 8 weeks with two different concentrations of a compound of the present invention, 3-amino-1-propanesulfonic acid, sodium salt, 100 and 30 mg/kg. Mice were administered the compound for 8 weeks, after which they were sacrificed and their brains were perfused and processed for histological staining with Thioflavin S. This method may also be used as a screening method for determining activity of a candidate compound for inhibiting CAA.
The extent of CAA in brain sections obtained from these animals was qualitatively determined following staining.

[1] = 100 mg/kg (printed 100 mg · kg), hAPP transgenic mice
[2] = 100 and 30 mg/kg, hAPP transgenic mice, versus vehicle

With `NCCCS(=O)(=O)[O-].[Na+]` [3-amino-1-propanesulfonic acid, sodium salt] the “CAA Severity + (slight deposition), animals with grade/animals with CAA” value (30 mg/kg, hAPP transgenic mice) was 6/10, the “CAA Severity ++ (moderate deposition), animals with grade/animals with CAA” value (30 mg/kg, hAPP transgenic mice) was 4/10 and the CAA animals/total animals (30 mg/kg, hAPP transgenic mice) was 10/11. The “# of animals with CAA” value (30 mg/kg, 11 animals in study) was 10, the “CAA Severity + (slight deposition), animals with grade/animals with CAA” value [1] was 9/10 and the “CAA Severity +++ (severe deposition), animals with grade/animals with CAA” value [1] was 1/10. For the same compound, the CAA animals/total animals [1] was 10/15, the “# of animals with CAA” value (100 mg/kg (printed 100 mg · kg), 15 animals in study) was 10 and the “effect on the severity of the deposition seen in the brain vasculature” value [2] was “showing an effect”. The “reducing the number of mice showing CAA” value [2] was “effective”.
